The term inhibition denotes how much of the control response was suppressed. By LD50 is commonly meant the dose expected to kill half of the subjects tested. As a reminder, the ED50 is the dose that gives a 50% effect, or the effect in half of the subjects.

Data set [1] deals with PancI (pancreatic cancer cell line). Put plainly: MTT assay, LD030 on PancI. Conditions: Homo sapiens, 48 hours, read-out: inhibition rate on cell growth. In kind it is cell-based. On the procedure: MTT assay, a well known method known in the art, was used to analyze anticancer effects of compound LD030 on human cancer cell lines, such as, HepG2 (liver cancer cell line), PancI (pancreatic cancer cell line), NCI-H460 (lung cancer cell line), MCF-7 (breast adenocarcinoma cell line) and SF-268 (brain tumor cell lines). An LD030 solution was diluted gradually to obtain a serial of LD030 solutions with decreasing concentrations, which was used to treat various cancer cell lines mentioned above incubated in separate container. […] For incubating with HepG2 cell line, LD030's concentrations were 0.001 μM, 0.01 μM, 0.1 μM, 1 μM, 10 μM, 100 μM. For PancI cell line, the concentrations were 0.1 μM, 1 μM, 10 μM, 100 μM. For NCI-H460 cell line, the concentrations were 0.001 μM, 0.01 μM, 0.1 μM, 1 μM, 10 μM, 100 μM. For MCF-7 cell line, the concentrations were 0.001 μM, 0.01 μM, 0.1 μM, 1 μM, 10 μM, 100 μM. For SF-268 cell line, the concentrations were 0.001 μM, 0.01 μM, 0.1 μM, 1 μM, 10 μM, 100 μM.
(Tetrazolium dyes change colour on reduction, which living cells bring about.)

A short description of data set [2]: Toxicity study of LD030 on BALB/c mice. In kind it is in vivo. As for the experimental part: LD030 animal toxicity experiments were conducted in adult BALB/c mice. The mice were subject to a […] dosage of 1-16 mg/Kg via peritoneal injection. […] The results confirmed that at a dosage as high as 16 mg/Kg LD030 is safe to BALB/c. By short-term toxicological experiment, the half-lethal dose LD50 (under continuous treatment) is 4 mg/kg, and the median effective dose ED50 of 0.2 mg/kg, resulting in a therapeutic Index of 20 (that is, LD50/ED50≈20).

Data set [3] relates to allograft pancreatic cancer cell lines. Nature of the data set: Allograft pancreatic cancer cell lines in mouse model, tumor size. In kind it is in vivo. The following applies: 0.01 mg/kg intraperitoneal injection, three times a week. On the procedure:
LD030's effect on the growth of allograft pancreatic cancer cell lines was further studied as follows: Each mouse model was given 0.01 mg/kg LD030 via intraperitoneal injection, three times a week. […] Extracted from the treated mouse and the control mouse, the phosphorylation-signal transduction and activator of transcription (p-STAT3), phospho-JAK2 (p-JAK2), Bcl-XL, apoptosis protease 3, 9 and GADPH (glyceraldehyde-3-phosphate dehydrogenase, or […]) were subject to protein electrophoresis. […] GADPH was used as an internal reference, the expression of which was basically unchanged.

Data set [4] has as its system Jak/STAT phosphorylation in PancI cells. Nature of the data set: Western Blotting of signal pathway proteins in PancI cells. In kind it is cell-based, human. On the procedure: The Jak/STAT channel plays an important role in cell growth, proliferation, and survival. Using Western Blotting, the present invention studied the effect of LD030 on Jak/STAT phosphorylation in PancI cells.
The cells were treated with LD030 at concentrations of 20 μM and 50 μM, for 4 hours, 8 hours, 24 hours, and 48 hours. After the treatment, the cells were collected and subject to lysis in the buffer (50 mM Tris-HCl pH7.5, 100 mM NaCl, 5 mM EDTA, 40 mM NaP2O7, 1% Triton X-100, 1 mM dithiothreitol, 200 μM Na3VO4, 100 μM phenylmethysufonyl fluoride fluoride, 2 μg/ml leupeptin, 4 μg/ml aprotinin and 0.7 μg/ml pepstatin). Analysis of stained protein (BioRad, 500-0006) was conduct for adjusting the protein concentration. Same quantity of protein (50 μg/lane) was used for 10% SDS-polyacrylamide gel electrophoresis, and then electrically transferred to the polyvinylidene fluoride (PVDF) membrane. The membrane was treated with antibodies specific to p-Jak2 (Cell signaling, 3771), p-Stat3 (Cell signaling, 9131) and α-tubulin (Zymed Laboratories, 32-2500). Visible protein bands were detected with an enhanced chemiluminescence (ECL Plus) detection system (Amersham).
The protein electrophoresis results in the above described experiments are shown FIGS. 23 and 24 for LD030 treatments at 20 μM and 50 μM, respectively. […] The expression of tubulin as internal reference was basically unchanged.
On the technique in general: A western blot detects proteins with antibodies after separation by electrophoresis.

Where [5] appears, read: 20 μM, at 24 hours and 48 hours, versus blank control.
[6] abbreviates: 50 μM, at 24 hours and 48 hours, versus blank control.

Consider `CC(=O)OC(C)(C)C(=O)CCC(C)C1CC[C@@]2(C)C34CC[C@H]5C(C)(C)[C@@H](O)CC[C@]5(C)C3(CC[C@]12C)O4` (stereo partly drawn) [LD030], for which the inhibition at 100 µM in data set [1] was over 80%. Besides, the “therapeutic Index (LD50/ED50)” value in data set [2] (BALB/c, mouse, in vivo) turned out to be 20. Besides, in data set [2] (BALB/c, mouse, in vivo, short-term toxicological experiment, under continuous treatment, read-out: half-lethal dose LD50), the LD50 was 4 mg/kg. In data set [2] (Mus musculus, read-out: median effective dose ED50), the median effective dose (ED50) is 0.2 mg/kg. In data set [2] (adult BALB/c mice, 1-16 mg/Kg via peritoneal injection), the toxicity observed entry is “No significant toxicity”. Moreover, the survival result in data set [2] (adult BALB/c mice, 1-16 mg/Kg via peritoneal injection, after 14 days) is “still alive”. In data set [3], the “tumor size versus untreated control mouse” value is on record as “significantly reduced”. Also, in data set [4] (setting [5]), the p-jak2 result is reported as “significantly reduced” and the “p-stat3 (tyr705)” value was “significantly reduced”. For the same compound, the p-JNK result in data set [4] (20 μM, versus blank control) is listed as “up-regulates”. In data set [4] (setting [6]), the p-ERK entry is given as “significantly reduced” and the p-c-raf entry is “significantly reduced”. The “expression of Cyclin D1” value in data set [4] (50 μM, at 48 hours) is given as “decreased”. Besides, in data set [4] (50 μM, versus blank control), the “expression of p-JNK” value is given as “increased” and the “expression of p-p38” value is listed as “increased”.

The values are drawn from patent publication US9522935B2, “Commands and method of treating cancer via RHO pathway” (priority 2013, dated 2016).
